Data from patent US20260184691A1, “INHIBITORS AND DEGRADERS OF PIP4K PROTEIN” (Larkspur Biosciences, Inc., priority 2022, published 2026).
pIC50: −log10 of the molar value.

What follows are molecules tested against T1, Human PIP4K2C (Homo sapiens, UniProt Q8TBX8) (assay: Enzyme binding assay (KINOMEscan), active site-directed competition binding). Settings: 11-point dose response, duplicate, top concentration 5 micromolar; read-out: Pip4k2c Kd: IC50.
T1 construct: purchased Eurofins DiscoverX 87-0007-1094
T1 sequence (Q8TBX8 1-421): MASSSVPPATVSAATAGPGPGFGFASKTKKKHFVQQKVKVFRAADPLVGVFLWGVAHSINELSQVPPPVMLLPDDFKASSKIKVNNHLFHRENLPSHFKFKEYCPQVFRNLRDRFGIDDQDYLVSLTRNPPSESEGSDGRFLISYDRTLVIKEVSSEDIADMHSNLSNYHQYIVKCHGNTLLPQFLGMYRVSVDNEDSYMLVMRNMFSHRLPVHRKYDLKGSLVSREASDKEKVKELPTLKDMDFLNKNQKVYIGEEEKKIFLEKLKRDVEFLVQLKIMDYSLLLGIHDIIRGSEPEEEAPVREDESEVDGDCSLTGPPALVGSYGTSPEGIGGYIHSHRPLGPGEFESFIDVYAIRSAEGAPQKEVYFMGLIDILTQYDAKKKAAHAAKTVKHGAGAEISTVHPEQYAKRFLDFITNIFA
Procedure: PIP4K2C binding constants disclosed herein were determined using the proprietary Human PIP4K2C binding assay (Catalog number 87-0007-1094, Eurofins DiscoverX, San Diego, CA). This assay measures active site-directed competition binding to an immobilized ligand (see https://doi.org/10.1038/nbt1068, herein incorporated by reference in its entirety). Experiments were conducted using an 11-point dose response curve, in duplicate, with a top starting concentration of 5 micromolar; the Levenberg-Marquardt algorithm was used to fit a Hill equation to dose-response data to calculate IC50 values (see Table 5).

Row | SMILES | pIC50
1 | O=C1CCCN1c1cncc(Nc2ncc(Cl)c(-c3cccc(C4CCCCC4)c3)n2)c1 [Compound 19, 1-(5-((5-chloro-4-(3-cyclohexylphenyl)pyrimidin-2-yl)amino)pyridin-3-yl)pyrrolidin-2-one] | > 6.30
2 | CC(C)c1cc(-c2nc(Nc3cncc(N4CCCC4=O)c3)ncc2Cl)ccn1 [Compound 111, 1-(5-((5-chloro-4-(2-isopropylpyridin-4-yl)pyrimidin-2-yl)amino)pyridin-3-yl)pyrrolidin-2-one] | > 6.30
3 | Cc1cc(F)ccc1-c1nc(Nc2cncc(N3CCCC3=O)c2)ncc1Cl [Compound 113, 1-(5-((5-chloro-4-(4-fluoro-2methylphenyl)pyrimidin-2-yl)amino)pyridin-3-yl)pyrrolidin-2-one] | > 6.30
4 | CN1CCC(c2cccc(-c3nc(Nc4cncc(N5CCCC5=O)c4)ncc3Cl)c2)CC1 [Compound 27, 1-(5-((5-chloro-4-(3-(1-methylpiperidin-4-yl)phenyl)pyrimidin-2-yl)amino)pyridin-3-yl)pyrrolidin-2-one] | > 6.30
5 | O=C1CCCN1c1cncc(Nc2ncc(Cl)c(N3CCCCC3)n2)c1 [Compound 96, 1-(5-((5-chloro-4-(piperidin-1-yl)pyrimidin-2-yl)amino)pyridin-3-yl)pyrrolidin-2-one] | > 6.30
6 | O=C(c1cc[nH]c(=O)c1)N1CCCC(c2nc(Nc3cncc(N4CCCC4=O)c3)ncc2Cl)C1 (stereo not shown) [Compound 164, 4-(3-(5-chloro-2-((5-(2-oxopyrrolidin-1-yl)pyridin-3-yl)amino)pyrimidin-4-yl)piperidine-1-carbonyl)pyridin-2(1H)-one] | > 6.30
7 | O=C1CCCN1c1cncc(Nc2ncc(Cl)c(-c3cccc(Cl)c3)n2)c1 [Compound 92, 1-(5-((5-chloro-4-(3-chlorophenyl)pyrimidin-2-yl)amino)pyridin-3-yl)pyrrolidin-2-one] | > 6.30
8 | CC(=O)N1CCCC(c2cccc(-c3nc(Nc4cncc(N5CCCC5=O)c4)ncc3Cl)c2)C1 (stereo not shown) [Compound 34, 1-(5-((4-(3-(1-acetylpiperidin-3-yl)phenyl)-5-chloropyrimidin-2-yl)amino)pyridin-3-yl)pyrrolidin-2-one] | > 6.30
9 | O=C1CCCN1c1cncc(Nc2ncc(Cl)c(-c3cccc(-c4ccccn4)c3)n2)c1 [Compound 9, 1-(5-((5-chloro-4-(3-(pyridin-2-yl)phenyl)pyrimidin-2-yl)amino)pyridin-3-yl)pyrrolidin-2-one] | > 6.30
10 | O=C1CCCN1c1cncc(Nc2ncc(Cl)c(-c3cccc(-c4ccccc4Cl)c3)n2)c1 [Compound 14, 1-(5-((5-chloro-4-(2′-chloro-[1,1′-biphenyl]-3-yl)pyrimidin-2-yl)amino)pyridin-3-yl)pyrrolidin-2-one] | > 6.30
11 | O=C1CCCN1c1cncc(Nc2ncc(Cl)c(C3CCCN(C4CC4)C3)n2)c1 (stereo not shown) [Compound 149, 1-(5-((5-chloro-4-(1-cyclopropylpiperidin-3-yl)pyrimidin-2-yl)amino)pyridin-3-yl)pyrrolidin-2-one] | > 6.30
12 | CC1CCCN(c2nc(Nc3cncc(N4CCCC4=O)c3)ncc2Cl)C1 (stereo not shown) [Compound 100, 1-(5-((5-chloro-4-(3-methylpiperidin-1-yl)pyrimidin-2-yl)amino)pyridin-3-yl)pyrrolidin-2-one] | > 6.30
13 | COc1ccc(-c2nc(Nc3cncc(N4CCCC4=O)c3)ncc2Cl)cc1-c1ccccc1 [Compound 8, 1-(5-((5-chloro-4-(6-methoxy-[1,1′-biphenyl]-3-yl)pyrimidin-2-yl)amino)pyridin-3-yl)pyrrolidin-2-one] | > 6.30
14 | O=C1CCCN1c1cncc(Nc2cc(-c3ccc(F)cc3F)c(Cl)cn2)c1 [Compound 104, 1-(5-((5-chloro-4-(2,4-difluorophenyl)pyridin-2-yl)amino)pyridin-3-yl)pyrrolidin-2-one] | 6.00 to 6.30
15 | O=C1CCCN1c1cncc(Nc2ncc(Cl)c(N3CCCC(C4CCC4)C3)n2)c1 (stereo not shown) [Compound 123, 1-(5-((5-chloro-4-(3-cyclobutylpiperidin-1-yl)pyrimidin-2-yl)amino)pyridin-3-yl)pyrrolidin-2-one] | > 6.30
16 | O=C1CCCN1c1cncc(Nc2ncc(Cl)c(-c3cccc(N4CCC4)c3)n2)c1 [Compound 122, 1-(5-((4-(3-(azetidin-1-yl)phenyl)-5-chloropyrimidin-2-yl)amino)pyridin-3-yl)pyrrolidin-2-one] | > 6.30
17 | O=C1CCCN1c1cncc(Nc2ncc(Cl)c(-c3cccc(C4CC4)c3)n2)c1 [Compound 12, 1-(5-((5-chloro-4-(3-cyclopropylphenyl)pyrimidin-2-yl)amino)pyridin-3-yl)pyrrolidin-2-one] | > 6.30

Row | SMILES | pIC50
18 | CC1CN(c2nc(Nc3cncc(N4CCCC4=O)c3)ncc2Cl)CC(C)O1 (stereo not shown) [Compound 114, 1-(5-((5-chloro-4-(2,6-dimethylmorpholino)pyrimidin-2-yl)amino)pyridin-3-yl)pyrrolidin-2-one] | > 6.30
19 | COc1ccc(-c2cccc(-c3nc(Nc4cncc(N5CCCC5=O)c4)ncc3Cl)c2)cc1 [Compound 5, 1-(5-((5-chloro-4-(4′-methoxy-[1,1′-biphenyl]-3-yl)pyrimidin-2-yl)amino)pyridin-3-yl)pyrrolidin-2-one] | > 6.30
20 | O=C1CCCN1c1cncc(Nc2ncc(F)c(-c3ccc(=O)n(C4COC4)c3)n2)c1 [Compound 155, 5-(5-fluoro-2-((5-(2-oxopyrrolidin-1-yl)pyridin-3-yl)amino)pyrimidin-4-yl)-1-(oxetan-3-yl)pyridin-2(1H)-one] | > 6.30
21 | CN1CCN(c2cncc(Nc3ncc(Cl)c(-c4cccc(-c5ccccc5)c4)n3)c2)C1=O [Compound 32, 1-(5-((4-([1,1′-biphenyl]-3-yl)-5-chloropyrimidin-2-yl)amino)pyridin-3-yl)-3-methylimidazolidin-2-one] | > 6.30
22 | CN1CCC(n2cc(-c3nc(Nc4cncc(N5CCCC5=O)c4)ncc3Cl)cn2)CC1 [Compound 47, 1-(5-((5-chloro-4-(1-(1-methylpiperidin-4-yl)-1H-pyrazol-4-yl)pyrimidin-2-yl)amino)pyridin-3-yl)pyrrolidin-2-one] | > 6.30
23 | O=C1CCCN1c1cncc(Nc2ncc(Cl)c(N3CCC[C@H](c4ccccn4)C3)n2)c1 (single isomer, unassigned) [Compound 125] | > 6.30
24 | O=C1CCCN1c1cncc(Nc2ncc(Cl)c(-c3ccc(Cl)cc3)n2)c1 [Compound 93, 1-(5-((5-chloro-4-(4-chlorophenyl)pyrimidin-2-yl)amino)pyridin-3-yl)pyrrolidin-2-one] | > 6.30
25 | CN1CCC2(CC1)CCN(c1cncc(Nc3ncc(Cl)c(-c4cccc(-c5ccccc5)c4)n3)c1)C2=O [Compound 132, 2-[5-[[5-chloro-4-(3-phenylphenyl)pyrimidin-2-yl]amino]-3-pyridyl]-8-methyl-2,8-diazaspiro[4.5]decan-1-one] | > 6.30
26 | O=C1CCCN1c1cncc(Nc2ncc(Cl)c(-c3cccc(-c4ccc(Cl)cc4)c3)n2)c1 [Compound 4, 1-(5-((5-chloro-4-(4′-chloro-[1,1′-biphenyl]-3-yl)pyrimidin-2-yl)amino)pyridin-3-yl)pyrrolidin-2-one] | > 6.30
27 | O=C1CCCN1c1cncc(Nc2ncc(Cl)c(-c3cnn(C4CCC4)c3)n2)c1 [Compound 137, 1-(5-((5-chloro-4-(1-cyclobutyl-1H-pyrazol-4-yl)pyrimidin-2-yl)amino)pyridin-3-yl)pyrrolidin-2-one] | > 6.30
28 | O=C1CCCN1c1cncc(Nc2ncc(Cl)c(-c3ccccc3Cl)n2)c1 [Compound 95, 1-(5-((5-chloro-4-(2-chlorophenyl)pyrimidin-2-yl)amino)pyridin-3-yl)pyrrolidin-2-one] | > 6.30
29 | O=C1CCCN1c1cncc(Nc2ncc(Cl)c(-c3ccn(C4CCCC4)n3)n2)c1 [Compound 144, 1-(5-((5-chloro-4-(1-cyclopentyl-1H-pyrazol-3-yl)pyrimidin-2-yl)amino)pyridin-3-yl)pyrrolidin-2-one] | > 6.30
30 | CC(=O)N1CC2(CC(=O)N(c3cncc(Nc4ncc(Cl)c(-c5cccc(-c6ccccc6)c5)n4)c3)C2)C1 [Compound 36, 6-(5-((4-([1,1′-biphenyl]-3-yl)-5-chloropyrimidin-2-yl)amino)pyridin-3-yl)-2-acetyl-2,6-diazaspiro[3.4]octan-7-one] | > 6.30
31 | O=C(c1ccc(F)cc1)N1CCCC(c2nc(Nc3cncc(N4CCCC4=O)c3)ncc2Cl)C1 (stereo not shown) [Compound 162, 1-(5-((5-chloro-4-(1-(4-fluorobenzoyl)piperidin-3-yl)pyrimidin-2-yl)amino)pyridin-3-yl)pyrrolidin-2-one] | > 6.30
32 | O=C1CCCN1c1ccnc(Nc2ncc(Cl)c(-c3cccc(C4CCCCC4)c3)n2)c1 [Compound 150, 1-(2-((5-chloro-4-(3-cyclohexylphenyl)pyrimidin-2-yl)amino)pyridin-4-yl)pyrrolidin-2-one] | 6.00 to 6.30
33 | O=C1CCCN1c1cncc(Nc2ncc(Cl)c(N3CCOC(c4ccccn4)C3)n2)c1 (stereo not shown) [Compound 134, 1-[5-[[5-chloro-4-[2-(2-pyridyl)morpholin-4-yl]pyrimidin-2-yl]amino]-3-pyridyl]pyrrolidin-2-one] | > 6.30
34 | O=C1CCCN1c1cncc(Nc2ncc(Cl)c(N3Cc4ccccc4C3)n2)c1 [Compound 130, 1-(5-((5-chloro-4-(isoindolin-2-yl)pyrimidin-2-yl)amino)pyridin-3-yl)pyrrolidin-2-one] | > 6.30
